Data taken from patent US20240384268A1, “Oligonucleotides” (Hudson Institute of Medical Research, priority 2021, published 2024).
In the oligonucleotide strings, read from the 5' end, every base follows the letter of its sugar. An asterisk marks phosphorothioate; unmarked linkages are phosphodiester. Other units and linkages are bracketed, terminal groups are in braces. A string of capitals states the bases alone. d = 2'-deoxy (DNA); m = 2'-O-methyl

Target: T1, TLR8 (Homo sapiens, UniProt Q9NR97)
T1 sequence (Q9NR97 27-1041): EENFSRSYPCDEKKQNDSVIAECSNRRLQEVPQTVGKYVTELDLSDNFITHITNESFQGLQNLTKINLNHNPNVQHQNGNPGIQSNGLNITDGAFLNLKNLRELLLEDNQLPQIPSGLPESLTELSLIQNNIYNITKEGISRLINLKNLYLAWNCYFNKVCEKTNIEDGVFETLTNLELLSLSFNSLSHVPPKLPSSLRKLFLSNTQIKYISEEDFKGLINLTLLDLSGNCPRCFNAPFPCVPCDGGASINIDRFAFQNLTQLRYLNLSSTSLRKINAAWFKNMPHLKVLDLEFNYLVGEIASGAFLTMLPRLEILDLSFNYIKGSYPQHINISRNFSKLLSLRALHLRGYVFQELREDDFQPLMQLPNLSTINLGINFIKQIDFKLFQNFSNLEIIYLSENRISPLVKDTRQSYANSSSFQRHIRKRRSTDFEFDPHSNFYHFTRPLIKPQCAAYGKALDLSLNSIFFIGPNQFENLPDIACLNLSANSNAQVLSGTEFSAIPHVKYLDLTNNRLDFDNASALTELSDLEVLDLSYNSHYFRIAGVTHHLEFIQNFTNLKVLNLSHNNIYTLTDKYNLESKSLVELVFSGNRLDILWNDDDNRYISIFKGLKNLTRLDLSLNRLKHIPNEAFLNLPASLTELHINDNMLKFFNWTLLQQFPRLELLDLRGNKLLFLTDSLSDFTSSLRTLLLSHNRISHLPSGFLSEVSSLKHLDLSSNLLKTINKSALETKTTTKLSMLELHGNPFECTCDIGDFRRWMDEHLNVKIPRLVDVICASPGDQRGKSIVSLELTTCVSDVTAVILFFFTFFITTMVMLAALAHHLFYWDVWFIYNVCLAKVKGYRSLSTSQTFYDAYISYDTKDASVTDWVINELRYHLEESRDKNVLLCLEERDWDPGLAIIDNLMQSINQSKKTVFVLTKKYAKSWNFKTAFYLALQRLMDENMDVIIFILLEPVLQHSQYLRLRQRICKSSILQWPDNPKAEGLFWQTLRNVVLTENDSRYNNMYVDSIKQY
Test: R848-driven IP-10 production in THP-1 cells (TLR8);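 further: IP-10 by ELISA in supernatant after 7 h R848 stimulation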
Format: cell-based
Set-up: expressed in transfected cells
Settings: 3mer 2'OMe ASO at 1 uM; raw values, Ligand only = 355.752, NT = 134.831

Substance | TLR8 1 uM
ACU (antisense mA*mC*mU) | 250.907
dC*dA*dC (CAC; listed as RNA, chemistry not fully specified) | 344.415
mGmUmA (GUA; all 2'-O-methyl, backbone not given here; further chemistry not fully specified) [shortMut1-3b] | 133.537
AGU (antisense mA*mG*mU) | 270.256
GGU (mG*mG*mU) | 274.989
dG*dC*dG [GCG] | 290.409
dG*dC*dC [GCC] | 209.536
dA*dG*dC (DNA AGC; listed as DNA, chemistry not fully specified) | 267.225
mGmUmC (mG*mU*mC) [GUC, 3-mer 2′OMe PS oligo] | 131.948
mGmUmU (mG*mU*mU) [GUU, 3-mer 2′OMe PS oligo] | 166.278
dA*dA*dC (DNA AAC; listed as DNA, chemistry not fully specified) | 218.889
mGmUmG (mG*mU*mG) [GUG, 3-mer 2′OMe PS oligo] | 158.982
UAG (mU*mA*mG) | 226.441
UAC (mU*mA*mC) | 254.486
mUmGmG (mU*mG*mG) [UGG, 3-mer 2′OMe PS oligo] | 527.575
UUC (mU*mU*mC) | 213.878
GCU (mG*mC*mU) | 193.279
AUA (antisense mA*mU*mA) | 157.293
mAmUmC (mA*mU*mC) [AUC, 3-mer 2′OMe PS oligo] | 181.793
CUA (mC*mU*mA) | 243.564
dA*dC*dA (DNA ACA; listed as RNA, chemistry not fully specified) | 262.630
CCU (mC*mC*mU) | 332.524
UUG (listed as RNA, chemistry not fully specified) | 347.573
dA*dA*dA (DNA AAA; listed as DNA, chemistry not fully specified) | 225.029
AUG (mA*mU*mG) | 151.847
UCC (mU*mC*mC) | 346.575

Substance | TLR8 1 uM
dA*dA*dG (DNA AAG; listed as DNA, chemistry not fully specified) | 179.302
mGmAmU (mG*mA*mU) [GAU, 3-mer 2′OMe PS oligo] | 147.162
mUmCmG (antisense mU*mC*mG) [660-3b] | 746.272
UAU (mU*mA*mU) | 213.758
mUmGmA (mU*mG*mA) [UGA, 3-mer 2′OMe PS oligo] | 267.234
UUA (mU*mU*mA) | 350.207
UGC (mU*mG*mC) | 278.054
dC*dC*dA (CCA; listed as DNA, chemistry not fully specified) | 181.239
CUG (mC*mU*mG) | 264.072
CGU (mC*mG*mU) | 346.350
CUC (mC*mU*mC) | 245.566
mUmCmA (mU*mC*mA) [UCA, 3-mer 2′OMe PS oligo] | 1049.345
dC*dC*dG (CCG; listed as DNA, chemistry not fully specified) | 437.264
UUU (mU*mU*mU) | 307.213
mCmUmU (antisense mC*mU*mU) [660-3] | 167.148
dA*dG*dA (DNA AGA; listed as DNA, chemistry not fully specified) | 214.450
AAU (antisense mA*mA*mU) | 202.802
AUU (mA*mU*mU) | 274.683
dC*dA*dA (CAA; listed as DNA, chemistry not fully specified) | 373.157
dC*dC*dC (CCC; listed as DNA, chemistry not fully specified) | 181.399
UCU (mU*mC*mU) | 371.961
CAU (mC*mA*mU) | 388.191
UGU (mU*mG*mU) | 331.923
UAA (mU*mA*mA) | 224.188
dC*dG*dA (CGA; listed as DNA, chemistry not fully specified) | 504.099
